Consider 10 molecules from patent US10391068B2 (priority 2012, dated 2019).

“And” between values parts separate entries of the source, which are not always exact repeats. Equal values may be shown once. “Also recorded” adds a separate entry of the source. Read-outs that look alike come from different tables or passages of the source.

One experiment concerns the target recombinant mouse PrP^C (Mus musculus, UniProt P04925). The experiment is described as follows: biochemical. In kind it is binding.
In experiment [1] the target is T1, moPrP (23-230) (Mus musculus, UniProt P04925). The experiment is classed as biochemical.
The target of a further experiment is PrP^23-230 (Mus musculus, UniProt P04925). In kind it is binding.
For experiment [2], the target named is Aβ oligomers binding to PrP^C (Mus musculus, UniProt P04925). Briefly: biochemical.
The next experiment concerns the target recombinant C-PrP (Mus musculus, UniProt P04925). The experiment is described as follows: biochemical. The experiment is classed as binding.
Experiment [3] addresses T2, N-PrP (23-111) (Mus musculus, UniProt P04925). The experiment is classed as binding.
Another experiment deals with C-PrP (120-230) (Mus musculus, UniProt P04925). The experiment is classed as binding.
For a further experiment, the target named is human recombinant PrP^C (Homo sapiens, UniProt P04156). Briefly: biochemical. In kind it is binding.
Another experiment addresses myoglobin (Equus caballus, UniProt P68082). The experiment is classed as binding.
Experiment [4] deals with Recombinant C-PrP (residues 120-230) (Mus musculus, UniProt P04925). The experiment is classed as binding.
The target of the next experiment is BSA (Bos taurus, UniProt P02769). In kind it is binding.
Experiment [5] relates to moPrP (23-230). The experiment is classed as binding, mouse.
For experiment [6], the target named is Aβ oligomers binding to N-PrP (Mus musculus, UniProt P04925).
The test system of experiment [7] is Aβ oligomer binding to PrP-expressing HEK cells. The experiment is classed as cell-based.
The target of experiment [8] is Aβ oligomers binding to PrP^C (Homo sapiens, UniProt P04156).
Experiment [9] concerns postnatal mouse hippocampal neurons treated with Aβ oligomers. The experiment is classed as cell-based.
Experiment [10] deals with T2, N-PrP (23-111). The experiment is classed as biochemical.
Experiment [11] deals with Aβ oligomer inhibition of LTP in hippocampal slices. In kind it is cell-based, mice.
The target of experiment [12] is T3, N-PrP / C-PrP interaction (Mus musculus, UniProt P04925). In kind it is binding.
In experiment [13] the target is T1, moPrP (23-230).
The target of another experiment is bovine serum albumin (Bos taurus, UniProt P02769). The experiment is described as follows: biochemical.
Chain of bovine serum albumin (P02769 25-607): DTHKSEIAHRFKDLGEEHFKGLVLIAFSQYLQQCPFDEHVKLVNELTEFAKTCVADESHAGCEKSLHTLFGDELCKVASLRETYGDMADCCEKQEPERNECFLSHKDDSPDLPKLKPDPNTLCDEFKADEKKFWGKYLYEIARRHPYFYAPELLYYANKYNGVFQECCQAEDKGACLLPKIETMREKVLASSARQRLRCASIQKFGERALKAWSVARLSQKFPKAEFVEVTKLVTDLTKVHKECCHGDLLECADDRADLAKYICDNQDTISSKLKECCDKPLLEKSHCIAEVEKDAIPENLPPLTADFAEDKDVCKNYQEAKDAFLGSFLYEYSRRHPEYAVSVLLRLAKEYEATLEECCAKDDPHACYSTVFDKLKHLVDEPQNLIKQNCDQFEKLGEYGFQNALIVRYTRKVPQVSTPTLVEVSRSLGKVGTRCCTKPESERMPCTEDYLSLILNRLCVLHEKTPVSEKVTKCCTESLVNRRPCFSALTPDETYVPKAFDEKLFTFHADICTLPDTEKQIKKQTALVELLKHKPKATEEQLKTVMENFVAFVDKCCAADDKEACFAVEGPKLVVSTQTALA
Experiment [14] is classed as binding. Particulars: read-out: KD (did not bind detectably).
Experiment [15] addresses T3, N-PrP / C-PrP interaction. The experiment is classed as biochemical.

Chain of myoglobin (P68082 2-154): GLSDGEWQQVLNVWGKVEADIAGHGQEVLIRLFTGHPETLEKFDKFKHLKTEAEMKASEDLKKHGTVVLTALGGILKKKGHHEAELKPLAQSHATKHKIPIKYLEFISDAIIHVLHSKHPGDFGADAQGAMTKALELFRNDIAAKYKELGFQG

For the molecule `O[C@@H]1[C@H](O)[C@H](O)/C(=N\NC(=S)NCc2ccc(F)cc2)[C@H](O)[C@H]1O` [DS211], on recombinant mouse PrP^C, the Kd was 62.3 µM and the “binding to PrP^C by SPR (in words)” value was “bind to PrP^C”.

Turning to `O=C1OC(C(O)C(O)CO)C(O)C1O` (stereo not drawn) [DS86, 3R,4S-dihydroxy-5S-(1,2,3-trihydroxypropyl)dihydrofuran-2(3H)-one], on recombinant mouse PrP^C, the “binding to PrP^C by SPR (in words)” value was “lower affinity; also recorded: also bind to PrP^C”.

With `FC(F)(F)c1cccc(COn2c(-c3ccccc3)nc3ncccc32)c1` [DS15, reference compound], on moPrP (23-230) [1], the “Trp fluorescence of full-length PrP (in words)” value is “did not produce any change in Trp fluorescence; also recorded: did not alter the trp fluorescence”. Moreover, at PrP^23-230, the “binding to PrP^C by EqD (in words)” value is reported as “No binding was observed”.

Consider `O=C(CN1CCCC1)Nc1ccc(Cc2ccc(NC(=O)CN3CCCC3)cc2)cc1` [GN8, N,N′-(methylenedi-4,1-phenylene)bis[2-(1-pyrrolidinyl)acetamide], reference compound], for which the “inhibition of Aβ oligomer binding to PrP^C by SPR (in words)” value in experiment [2] is “does not bind PrPC in the SPR assay used for studying the binding of PrPC ligands to PrPC or inhibit binding of Aβ oligomers to PrP^C”. Besides, on recombinant mouse PrP^C, the Kd is above 1000 µM and the “binding to PrP^C by SPR (in words)” value is listed as “does not bind; also recorded: no detectable binding; also recorded: failed to bind; also recorded: failed to detect binding”. Also, the “binding to PrP^C by EqD (in words)” value at PrP^23-230 is “No binding was observed; also recorded: failed to detect binding”.

“2R,3S,4S,5S,6R)-2-(hydroxymethyl)-6-[β-hydroxyphenyl)amino]tetrahydro-2H-pyran-3,4,5-triol [DS5]”: the “competition with / displacement of DS104 (in words)” value (from here on “competition with / displacement”) at recombinant C-PrP is “able to displace DS104; also recorded: competed with DS104”. Besides, the “binding to PrP^C by SPR (in words)” value at recombinant mouse PrP^C was “lower affinity; also recorded: also bind to PrP^C”.

On to `OC[C@@H](O)[C@H](O)[C@@H](O)c1nnn[nH]1` [DS40, (1S,2R,3R)-1-(1H-tetrazol-5-yl)butane-1,2,3,4-tetrol], for which, on N-PrP (23-111) [3], the “binding to N-PrP (in words)” value is recorded as “failed to bind”. In addition, on recombinant C-PrP, the “competition with / displacement” value is “able to displace DS104; also recorded: competed with DS104”. Moreover, the “binding to C-PrP (in words)” value at C-PrP (120-230) is “bound”. On recombinant mouse PrP^C, the “binding to PrP^C by SPR (in words)” value is reported as “lower affinity; also recorded: bind to PrP^C” and the “rate of dissociation (Koff) from PrP^C (in words)” value was “particularly slow rate of dissociation”. On human recombinant PrP^C, the Kd came to 0.801 µM and the “binding to human versus mouse PrP^C (in words)” value is “identical affinity”.

Turning to `O=C(O)c1cc(NC(=S)NN=C2C(O)C(O)C(O)C(O)C2O)ccc1-c1c2ccc(=O)cc-2oc2cc(O)ccc12` [DS104, (Z)—N-(3′,6′-dihydroxy-3-oxo-3H-spiro[isobenzofuran-1,9′-xanthen]-5-yl)-2-((2R,3R,4S,5R,6S)-2,3,4,5,6-pentahydroxycyclohexylidene)hydrazinecarbothioamide], at myoglobin, the “binding to myoglobin by FP” value is listed as “not detected”. Further, the Kd in [4] is 4 µM. Further, at BSA, the “binding to BSA by FP” value is recorded as “not detected”.

Take `COc1ccc(CCNC(=S)N/N=C2\[C@@H](O)[C@@H](O)[C@@H](O)[C@H](O)[C@H]2O)cc1OC` [DS207]: on recombinant mouse PrP^C, the Kd was 64.8 µM and the “binding to PrP^C by SPR (in words)” value is recorded as “bind to PrP^C”.

As to `CC(C)(C)NC(=S)N/N=C1\[C@@H](O)[C@@H](O)[C@@H](O)[C@H](O)[C@H]1O` [DS210], on recombinant mouse PrP^C, the Kd was found to be 63.1 µM and the “binding to PrP^C by SPR (in words)” value is reported as “bind to PrP^C”.

Regarding `NC(=S)NN=C1C(O)C(O)C(O)C(O)C1O` [DS26, 2-(2R,3S,5R,6S-pentahydroxycyclohexylidene)hydrazinecarbothioamide], in the experiment with moPrP (23-230) [5], the “difference in Tm versus PrP^C alone” value amounted to 2.11 °C; the “melting temperature (Tm) of PrP in presence of compound” value was 68.93±0.1 °C and 68.9 °C. Moreover, in experiment [6], the “inhibition of Aβ oligomer binding to N-PrP (in words)” value is on record as “failed to inhibit the binding of Aβ oligomers to N-PrP”. Also, the “binding to N-PrP (in words)” value on N-PrP (23-111) [3] was “failed to bind”. Further, at recombinant C-PrP, the Kd turned out to be 0.3 µM and the “competition with / displacement” value is on record as “able to displace DS104; also recorded: competed with DS104”. For the same molecule, in experiment [7], the “estimated IC50 on cells (in words)” value is “higher than the corresponding value observed by SPR and ELISA”; the “inhibition of Aβ oligomer binding to PrP^C on cells (in words)” value is given as “dose-dependent inhibition of Aβ binding; also recorded: inhibits binding of Aβ oligomers to PrP^C on cells”. Further, at moPrP (23-230) [1], the “Trp fluorescence of full-length PrP (in words)” value is recorded as “dose-dependent quenching; also recorded: quenched the trp fluorescence in a dose-dependent manner”. In addition, in experiment [2], the IC50 was around 15 µM, the “inhibition of Aβ oligomer binding to PrP^C by SPR (in words)” value was “inhibited binding of Aβ oligomers to PrP^C in a dose-dependent fashion; also recorded: decreased the binding of Aβ oligomers to PrP^C in a dose-dependent manner; also recorded: prevents binding of Aβ oligomers” and the “reduction of the Aβ oligomer-PrP^C interaction” value is on record as “more than 90%”. In addition, in the experiment with PrP^Sc replication, the “PrP^Sc replication in vitro (in words)” value is on record as “partially inhibits”. Moreover, the “release of Aβ oligomers pre-bound to PrP^C (in words)” value in experiment [8] is “unable to release Aβ that was already attached to PrP^C; also recorded: unable to dislodge Aβ oligomers”. In experiment [9], the “levels of synaptic markers after Aβ oligomers (in words)” value was “significantly rescued the levels of all the synaptic markers; also recorded: blocks the toxic effects of Aβ oligomers” and the “levels of synaptic markers with compound alone (in words)” value was “not significantly altered”. At C-PrP (120-230), the “binding to C-PrP (in words)” value was “bound; also recorded: binds”. Further, the “Trp fluorescence of N-PrP (in words)” value on N-PrP (23-111) [10] is “unaffected; also recorded: did not alter the trp fluorescence”. In experiment [11], the “LTP after Aβ oligomer exposure (in words)” value is reported as “significantly reversed the inhibitory effect of Aβ oligomers on LTP; also recorded: significantly (*p<0.05) enhances LTP after Aβ exposure” and the “LTP with compound alone (in words)” value is given as “No change in LTP was detected”. The “N-PrP binding to C-PrP by SPR (in words)” value in [12] is “N-PrP interacted with C-PrP only after pre-injection of DS26; also recorded: N-PrP bound to C-PrP that had been pre-treated with DS26”. At recombinant mouse PrP^C, the “DS26 remained bound to PrP^C after washing” value worked out at 70%, the Kd came out at 0.571 µM, the “binding to PrP^C by SPR (in words)” value is given as “sub-micromolar affinity; also recorded: higher affinity; also recorded: stereospecific; also recorded: bound; also recorded: binds; also recorded: bind to PrP^C” and the koff worked out at 0.00014 s⁻¹. On recombinant mouse PrP^C, the kon came to 245 M⁻¹ s⁻¹ and the “rate of dissociation (Koff) from PrP^C (in words)” value is reported as “particularly slow rate of dissociation; also recorded: remarkably slow dissociation kinetics”. For the same molecule, the residence time at recombinant mouse PrP^C (read-out: half-life for the bound state) amounted to 83 min. In addition, the koff on recombinant mouse PrP^C (read-out: koff rate) stood at 0.00014 s⁻¹. The kon at recombinant mouse PrP^C (read-out: kon rate) is 245 M⁻¹ s⁻¹. Besides, on moPrP (23-230) [13], the “far-UV CD spectrum of PrP^C (in words)” value is recorded as “did not detectably alter the CD spectrum of PrP^C; also recorded: does not affect the far-UV CD spectrum”. Besides, the Kd on bovine serum albumin is above 1000 µM. For the same molecule, on PrP^23-230, the “binding to PrP^C by EqD (in words)” value was “retained by PrP^C in the sample chamber” and the “decrease in the concentration of compound in the assay chamber” value was 75%. In addition, the equilibrium dissociation constant (Kd) in experiment [14] was above 1000 µM. On human recombinant PrP^C, the Kd was determined as 0.571 µM and the “binding to human versus mouse PrP^C (in words)” value was “identical affinity”. In experiment [15], the “co-immunoprecipitation of C-PrP with N-PrP (in words)” value is “Co-immunoprecipitation of the two PrP fragments occurred only after incubation with DS26; also recorded: C-PrP was immunoprecipitated with N-PrP only in the presence of DS26”.
